Consider ten compounds from publication PMC4143145 (European journal of medicinal chemistry, 2014).

In assay [1] the test system is Burkitt lymphoma CA46 cells. As to the kind of experiment: Growth inhibition of Burkitt lymphoma CA46 cells. It is filed as cell-based. Conditions: Homo sapiens, CA46, read-out: IC50 in CA46 cells.
Assay [2] has as its system tubulin. Conditions: highest concentration examined 100 µM; cited from earlier work.
In assay [3] the test system is tubulin. Conditions: cited from earlier work.
The subject of assay [4] is PBL not stimulated with PHA. As to the kind of experiment: Cytotoxicity for resting peripheral blood lymphocytes. The following applies: Homo sapiens, Lymphocyte, read-out: IC50 PBLresting. It is filed as cell-based.
For the next assay, the system named is Mcl-1. As to the kind of experiment: Western blot in HeLa cells. It is filed as cell-based, human. Conditions: 25 µM, 24 h.
The next assay deals with Bcl-2. Briefly: Western blot in HeLa cells. It is filed as cell-based, human. The following applies: 25 µM, 24 h. (In general: Immunoblotting shows a protein as a band on a membrane.)
The test system of the next assay is cdc25C. As to the kind of experiment: Western blot in HeLa cells. The format is cell-based, human. Conditions: 25 µM; for cdc25c expression: 48 h; for cdc25C forms: 24 h.
Assay [5] has as its system HeLa cells. As to the kind of experiment: Annexin-V/PI flow cytometry. It is filed as cell-based, human. The following applies: 24 or 48 h. (In general: Flow cytometry measures light scatter and fluorescence of single cells or particles in a stream.)
The subject of assay [6] is HeLa cells. Briefly: Immunofluorescence of the microtubule network. The format is cell-based, human. Conditions: 25 µM, 24 h.
The subject of a further assay is aurora kinase A. As to the kind of experiment: Western blot in HeLa cells. The format is cell-based, human. The following applies: 25 µM, 24 h.
In the next assay the test system is cyclin B. As to the kind of experiment: Western blot in HeLa cells. The format is cell-based, human. The following applies: 25 µM.
The subject of another assay is γ-H2A.X. Briefly: Western blot in HeLa cells. The format is cell-based, human. Conditions: 25 µM, 24 h.

Structures are written as SMILES.

Consider `COc1ccc(/C=C\c2cc(OC)c(OC)c(OC)c2)cc1O` [CA-4, combretastatin A-4], for which the half-inhibitory concentration (IC50) (commonly the concentration at which inhibition is half-maximal) in assay [1] was found to be 0.02 ± 0.007 µM.
In the case of `COc1ccc2c(c1OC)C(=O)O[C@@H]2[C@H]1c2c(cc3c(c2OC)OCO3)CCN1C` [Compound 1, (S)-6,7-dimethoxy-3-((R)-4′-methoxy-6′-methyl-5′,6′,7′,8′-tetrahydro[1,3]dioxolo-[4,5]isoquinolin-5′-yl)isobenzofuran-1(3H)-one], in the assay on tubulin [2], the “inhibition of colchicine binding (fluorescence)” value is “no activity”. Further, in the assay on tubulin [3], the “inhibition of [3H]colchicine binding to tubulin” value was “without success”.
Take `COc1ccc2c(c1OC)C(=O)O[C@@H]2[C@H]1c2c(c(Br)c3c(c2OC)OCO3)CCN1C` [Compound 2, 9′-bromonoscapine, reference compound]: the IC50 in [4] is above 200 µM. For the same compound, the Mcl-1 band result in the assay on Mcl-1 is “strongly reduced”. Besides, the “inhibition of colchicine binding (fluorescence)” value in the assay on tubulin [2] was “inhibition of colchicine binding”. Further, the Bcl-2 expression result in the assay on Bcl-2 is recorded as “reduced”. Also, in the assay on cdc25C, the cdc25c expression entry is given as “strongly decreased”. Also, the “annexin-V positive cells (apoptosis)” value in the assay on HeLa cells [5] is on record as “slightly more active than the other three compounds”. The “cells with induced spherical morphology (microtubule rearrangement)” value (from here on “cells with induced spherical morphology”) in the assay with HeLa cells [6] is 70–80%.
Regarding `COc1ccc2c(c1OC)C(=O)O[C@@H]2[C@H]1c2c(c(C)c3c(c2OC)OCO3)CCN1C` [Compound 3, 9′-Methylnoscapine], the half-inhibitory concentration (IC50) in assay [4] is above 200 µM. For the same compound, in the assay with Mcl-1, the Mcl-1 band result is on record as “strongly reduced”. Further, in the assay on Bcl-2, the Bcl-2 expression result is recorded as “reduced”. The aurora kinase levels entry in the assay on aurora kinase A is “increased”. For the same compound, the entries for the “cyclin B expression” value in the assay on cyclin B (24 h) and in the assay on cyclin B (48 h) were “increased expression” and “disappearance”, respectively. For the same compound, in the assay on HeLa cells [6], the “cells with induced spherical morphology” value is recorded as 70–80%. For the same compound, the “expression of γ-H2A.X” value with γ-H2A.X is reported as “marked increase”.
On to `COc1ccc2c(c1OC)C(=O)O[C@@H]2[C@H]1c2c(c(-c3ccccc3)c3c(c2OC)OCO3)CCN1C` [Compound 4, 9′-Phenylnoscapine], for which the half-maximal inhibitory concentration (IC50) in [4] is above 200 µM. Moreover, the Mcl-1 band result in the assay on Mcl-1 is listed as “strongly reduced”. The aurora kinase levels result in the assay on aurora kinase A is recorded as “increased”. For the same compound, the figures for the “cyclin B expression” value in the assay with cyclin B (24 h) and in the assay with cyclin B (48 h) were “increased expression” and “disappearance”, respectively. In the assay on cdc25C, the cdc25C forms result was “slower migrating forms”. Besides, the cdc25c expression entry with cdc25C is reported as “strongly decreased”. Further, the “expression of γ-H2A.X” value with γ-H2A.X is “marked increase”.
Regarding `COc1ccc2c(c1OC)C(=O)O[C@@H]2[C@H]1c2c(c(-c3ccc(C)cc3)c3c(c2OC)OCO3)CCN1C` [Compound 5, 9′-(4-Methylphenyl)-noscapine], the IC50 in assay [4] was above 200 µM. The aurora kinase levels entry in the assay on aurora kinase A is listed as “increased”. Moreover, the “cyclin B expression” value in the assay with cyclin B (24 h) is “increased expression”. For the same compound, in the assay with cyclin B (48 h), the “cyclin B expression” value is “disappearance”. For the same compound, in the assay with cdc25C, the cdc25C forms result is listed as “slower migrating forms” and the cdc25c expression result is “strongly decreased”. The “expression of γ-H2A.X” value in the assay with γ-H2A.X was “marked increase”.
Consider `COc1ccccc1-c1c2c(c(OC)c3c1OCO3)[C@H]([C@H]1OC(=O)c3c1ccc(OC)c3OC)N(C)CC2` [Compound 6, 9′-(2-Methoxyphenyl)-noscapine], for which the 50% inhibitory concentration (IC50) in [4] was above 200 µM.
On to `COc1cccc(-c2c3c(c(OC)c4c2OCO4)[C@H]([C@H]2OC(=O)c4c2ccc(OC)c4OC)N(C)CC3)c1` [Compound 7, 9′-(3-Methoxyphenyl)-noscapine], for which the IC50 in assay [4] is above 200 µM. Besides, the “cells with induced spherical morphology” value in the assay on HeLa cells [6] was 70–80%.
For `COc1ccc(-c2c3c(c(OC)c4c2OCO4)[C@H]([C@H]2OC(=O)c4c2ccc(OC)c4OC)N(C)CC3)cc1` [Compound 8, 9′-(4-Methoxyphenyl)-noscapine], the IC50 in [4] is above 200 µM.
Consider `COc1ccc2c(c1OC)C(=O)O[C@@H]2[C@H]1c2c(c(-c3ccc4ccccc4c3)c3c(c2OC)OCO3)CCN1C` [Compound 9, 9′-(2-Naphthyl)-noscapine], for which the half-maximal inhibitory concentration (IC50) in assay [4] is above 200 µM.
